Reference: patent US20220356174A1, “PYRIDIN-2-ONE COMPOUNDS USEFUL AS SMARCA2 ANTAGONISTS” (Epizyme, Inc., priority 2018, published 2022)
Where two headings read alike, the source gives them in different places.

Assays:
FL-SMARCA4 = FL-SMARCA4 (Homo sapiens, UniProt P51532); assay: SMARCA4 ATPase activity assay (ADP-Glo, chicken mononucleosome substrate)
[1] = target: T1, FL-SMARCA2 (full-length human SMARCA2 isoform 1) (Homo sapiens, UniProt P51531); assay: SMARCA2 ATPase activity assay (ADP-Glo, chicken mononucleosome substrate); assay type: biochemical; conditions: ATP 250 uM
T1 construct: FLAG tag (YKDDDDK) (C); made in house; host or cells: Sf21 insect cells (baculovirus, pFastBacI)

[2] = FL-SMARCA4 IC50, Table 3.2, ATPase assay, enzyme 5 nM, ATP 250 uM, chicken mononucleosome 10 nM, 30 min preincubation
[3] = Table 3.1, ATPase assay, enzyme 5 nM, chicken mononucleosome 10 nM, 30 min preincubation
[4] = FL-SMARCA4 IC>50, Table 3c.2, ATPase assay, enzyme 5 nM, ATP 250 uM, chicken mononucleosome 10 nM, 30 min preincubation
[5] = Table 3c.1, ATPase assay, enzyme 5 nM, chicken mononucleosome 10 nM, 30 min preincubation
[6] = Table 3d.1, ATPase assay, enzyme 5 nM, chicken mononucleosome 10 nM, 30 min preincubation, read-out: FL-SMARCA2 IC>50
[7] = FL-SMARCA4 IC50, Table 3a.2, SMARCA4 5 nM, ATP 250 uM, mononucleosome 10 nM
[8] = Table 3a.1, SMARCA2 5 nM, mononucleosome 10 nM

Sequence of FL-SMARCA4 (P51532 whole entry, canonical isoform): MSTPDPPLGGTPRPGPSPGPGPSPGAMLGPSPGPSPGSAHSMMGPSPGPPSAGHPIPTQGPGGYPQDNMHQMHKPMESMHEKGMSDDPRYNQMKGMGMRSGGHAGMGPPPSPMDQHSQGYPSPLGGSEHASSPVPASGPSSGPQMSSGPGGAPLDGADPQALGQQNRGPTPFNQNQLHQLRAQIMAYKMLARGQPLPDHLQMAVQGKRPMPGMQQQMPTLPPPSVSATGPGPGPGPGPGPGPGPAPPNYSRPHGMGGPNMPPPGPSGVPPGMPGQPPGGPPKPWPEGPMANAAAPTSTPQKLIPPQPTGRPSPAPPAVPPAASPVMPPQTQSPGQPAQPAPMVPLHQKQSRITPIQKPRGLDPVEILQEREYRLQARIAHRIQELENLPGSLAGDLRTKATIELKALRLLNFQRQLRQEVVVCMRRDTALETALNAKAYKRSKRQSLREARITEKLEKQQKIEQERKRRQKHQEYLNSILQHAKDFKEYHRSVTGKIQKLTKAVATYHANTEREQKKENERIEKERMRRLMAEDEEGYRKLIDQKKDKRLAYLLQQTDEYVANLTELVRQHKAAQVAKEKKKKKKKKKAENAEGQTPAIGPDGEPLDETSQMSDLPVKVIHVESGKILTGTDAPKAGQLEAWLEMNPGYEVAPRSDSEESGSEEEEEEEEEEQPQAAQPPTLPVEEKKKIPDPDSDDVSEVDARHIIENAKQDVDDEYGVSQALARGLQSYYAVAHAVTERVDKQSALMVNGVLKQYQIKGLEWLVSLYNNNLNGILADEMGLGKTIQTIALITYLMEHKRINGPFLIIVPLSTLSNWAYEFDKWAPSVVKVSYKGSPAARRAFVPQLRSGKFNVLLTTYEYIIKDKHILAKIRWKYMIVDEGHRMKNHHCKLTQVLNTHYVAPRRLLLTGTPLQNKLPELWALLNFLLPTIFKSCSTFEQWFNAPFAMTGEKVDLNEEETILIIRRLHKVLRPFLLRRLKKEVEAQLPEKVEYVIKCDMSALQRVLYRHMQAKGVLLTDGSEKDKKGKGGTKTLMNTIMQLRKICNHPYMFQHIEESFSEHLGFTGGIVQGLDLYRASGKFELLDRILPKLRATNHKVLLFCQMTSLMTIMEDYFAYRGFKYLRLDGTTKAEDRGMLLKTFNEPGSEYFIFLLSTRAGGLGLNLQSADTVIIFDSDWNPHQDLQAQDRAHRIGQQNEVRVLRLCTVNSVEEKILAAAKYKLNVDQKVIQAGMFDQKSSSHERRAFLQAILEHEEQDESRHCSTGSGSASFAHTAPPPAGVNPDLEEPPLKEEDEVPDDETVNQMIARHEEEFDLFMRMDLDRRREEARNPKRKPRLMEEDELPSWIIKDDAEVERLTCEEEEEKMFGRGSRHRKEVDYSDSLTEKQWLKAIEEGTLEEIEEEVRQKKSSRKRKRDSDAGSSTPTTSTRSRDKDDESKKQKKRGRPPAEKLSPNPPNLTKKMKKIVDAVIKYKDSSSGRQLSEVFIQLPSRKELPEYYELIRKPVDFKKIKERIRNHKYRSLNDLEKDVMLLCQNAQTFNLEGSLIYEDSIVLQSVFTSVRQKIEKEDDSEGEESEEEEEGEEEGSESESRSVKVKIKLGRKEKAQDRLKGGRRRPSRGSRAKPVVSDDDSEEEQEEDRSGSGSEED
T1 sequence (P51531 with tags, fused parts or gaps): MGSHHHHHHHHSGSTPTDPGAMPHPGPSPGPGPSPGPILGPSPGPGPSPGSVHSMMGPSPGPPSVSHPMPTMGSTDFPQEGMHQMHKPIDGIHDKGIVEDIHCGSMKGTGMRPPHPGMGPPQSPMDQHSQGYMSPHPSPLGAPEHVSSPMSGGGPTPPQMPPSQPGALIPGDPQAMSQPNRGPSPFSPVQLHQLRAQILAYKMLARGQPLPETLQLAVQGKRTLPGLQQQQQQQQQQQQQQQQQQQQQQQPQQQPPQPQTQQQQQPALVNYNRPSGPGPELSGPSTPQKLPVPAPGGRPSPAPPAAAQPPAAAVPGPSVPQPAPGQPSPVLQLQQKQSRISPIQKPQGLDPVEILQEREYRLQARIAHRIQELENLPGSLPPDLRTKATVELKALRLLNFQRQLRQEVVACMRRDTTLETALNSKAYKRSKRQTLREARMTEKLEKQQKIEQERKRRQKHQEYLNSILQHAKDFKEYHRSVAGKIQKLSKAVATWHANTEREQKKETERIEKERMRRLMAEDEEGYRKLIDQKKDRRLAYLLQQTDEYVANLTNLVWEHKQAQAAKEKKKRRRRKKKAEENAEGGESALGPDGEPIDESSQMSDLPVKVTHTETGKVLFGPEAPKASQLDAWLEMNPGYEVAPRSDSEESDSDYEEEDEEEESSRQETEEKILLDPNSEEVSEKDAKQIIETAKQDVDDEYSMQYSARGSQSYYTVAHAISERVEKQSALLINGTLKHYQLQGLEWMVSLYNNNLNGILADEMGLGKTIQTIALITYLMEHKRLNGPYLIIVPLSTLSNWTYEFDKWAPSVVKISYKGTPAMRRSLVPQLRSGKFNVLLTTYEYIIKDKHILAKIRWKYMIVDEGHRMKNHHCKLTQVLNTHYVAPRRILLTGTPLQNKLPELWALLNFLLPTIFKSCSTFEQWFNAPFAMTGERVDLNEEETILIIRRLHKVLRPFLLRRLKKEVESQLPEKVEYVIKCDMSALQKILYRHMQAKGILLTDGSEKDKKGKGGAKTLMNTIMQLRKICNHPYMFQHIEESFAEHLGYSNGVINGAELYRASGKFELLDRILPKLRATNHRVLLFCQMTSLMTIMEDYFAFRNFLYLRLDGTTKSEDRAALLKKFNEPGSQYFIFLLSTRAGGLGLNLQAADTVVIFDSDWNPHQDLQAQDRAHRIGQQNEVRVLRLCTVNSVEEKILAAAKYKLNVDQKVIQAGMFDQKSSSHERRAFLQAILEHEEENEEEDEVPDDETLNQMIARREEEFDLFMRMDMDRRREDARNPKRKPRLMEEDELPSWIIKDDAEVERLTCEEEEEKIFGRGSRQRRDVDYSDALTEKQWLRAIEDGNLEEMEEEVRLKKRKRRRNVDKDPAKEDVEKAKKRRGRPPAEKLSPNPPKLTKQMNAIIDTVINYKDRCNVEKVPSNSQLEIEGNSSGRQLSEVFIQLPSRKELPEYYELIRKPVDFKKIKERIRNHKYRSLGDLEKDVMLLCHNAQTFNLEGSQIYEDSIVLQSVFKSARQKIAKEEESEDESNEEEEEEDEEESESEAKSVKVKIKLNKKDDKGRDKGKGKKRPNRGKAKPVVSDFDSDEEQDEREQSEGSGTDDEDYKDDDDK

Compound | IC50 (FL-SMARCA4; [2]) | IC50 [1, 3] | also measured
CCn1cc(NC(=O)c2nnc(Cl)s2)ccc1=O [Compound 72] | > 50 µM | 33.2 µM | –
CCn1cc(NC(=O)c2cc(OC)c(OC)s2)ccc1=O [Compound 171] | > 50 µM | > 50 µM | –
Cn1cncc1-c1cc(NC(=O)c2sc(C(F)(F)F)cc2Cl)cn(CC(F)F)c1=O [Compound 38c] | – | – | IC50 (FL-SMARCA4; [4]): > 50 µM; IC50 [1, 5]: > 50 µM
Cn1c(C(=O)Nc2cc(F)c(=O)n(CC(F)(F)F)c2)cc(Cl)c1C#N [Compound 160] | 0.864 µM | 0.224 µM | –
CCn1cc(NC(=O)c2cc(C#CCN)c(Cl)s2)ccc1=O [Compound 292] | 8.48 µM | 6.83 µM | –
CCn1cc(NC(=O)C(=O)c2ccc(Cl)s2)ccc1=O [Compound 1d] | – | – | IC50 (FL-SMARCA4; FL-SMARCA4 IC50): > 50 µM; IC50 [1, 6]: > 50 µM
Cn1ccnc1-c1cc(NC(=O)c2sc(C(F)(F)F)cc2Cl)cn(CC(F)F)c1=O [Compound 51c] | – | – | IC50 (FL-SMARCA4; [4]): > 50 µM; IC50 [1, 5]: > 50 µM
CNc1c(C(=O)Nc2cc(F)c(=O)n(CC(F)F)c2)sc(Cl)c1Cl [Compound 335] | 45.1 µM | 7.46 µM | –
CCn1cc(NC(=O)c2cc(Cl)c(Cl)s2)cc(Cc2cnn(C)c2)c1=O [Compound 186] | > 50 µM | 15.6 µM | –
O=C(Nc1cc(F)c(=O)n(CC(F)F)c1)c1cc(Cl)no1 [Compound 326] | 17.2 µM | 3.78 µM | –
Cc1cc(=O)n(C)cc1NC(=O)[C@@H]1CCCO[C@H]1c1cn[nH]c1 [Compound 7d] | – | – | IC50 (FL-SMARCA4; FL-SMARCA4 IC50): > 50 µM; IC50 [1, 6]: > 50 µM
COc1nc(C#Cc2cc(C(=O)Nc3cc(F)c(=O)n(CC(F)F)c3)sc2Cl)cs1 [Compound 107c] | – | – | IC50 (FL-SMARCA4; [4]): 0.142 µM; IC50 [1, 5]: 0.0508 µM
O=C(Nc1cc(F)c(=O)n(CCF)c1)c1ccc(-c2ccncc2)s1 [Compound 314] | > 50 µM | > 50 µM | –
CCn1cc(NC(=O)c2cc(Cl)cs2)ccc1=O [Compound 44] | > 50 µM | > 50 µM | –
CCn1cc(NC(=O)c2cccc(C)n2)ccc1=O [Compound 28a] | – | – | IC50 (FL-SMARCA4; [7]): > 50 µM; IC50 [1, 8]: > 50 µM
CCn1nc(C(=O)Nc2ccc(=O)n(CC)c2)cc1C [Compound 32] | > 50 µM | > 50 µM | –
CS(=O)(=O)c1sc(C(=O)Nc2cc(F)c(=O)n(CCF)c2)cc1Cl [Compound 301] | > 50 µM | 16.7 µM | –

Compound | IC50 (FL-SMARCA4; [2]) | IC50 [1, 3] | also measured
CCn1cc(NC(=O)c2cc(Cl)n(C)c2Cl)ccc1=O [Compound 96] | > 50 µM | > 50 µM | –
CCn1cc(NC(=O)C2CCOCC2)ccc1=O [Compound 13a] | – | – | IC50 (FL-SMARCA4; [7]): > 50 µM; IC50 [1, 8]: > 50 µM
CCn1cc(NC(=O)c2ccc(I)n2C)ccc1=O [Compound 48] | > 50 µM | 14.1 µM | –
CCn1cc(NC(=O)c2ccc(Cl)c(F)c2)ccc1=O [Compound 9b] | – | – | IC50 (FL-SMARCA4; FL-SMARCA4 IC50, Table 3b.2, SMARCA4 5 nM, ATP 250 uM, mononucleosome 10 nM): > 50 µM; IC50 ([1]; Table 3b.1, SMARCA2 5 nM, mononucleosome 10 nM): 43.7 µM
Cc1cc(=O)n(C)cc1NC(=O)[C@@H]1CNC[C@H]1C(F)(F)F [Compound 8d] | – | – | IC50 (FL-SMARCA4; FL-SMARCA4 IC50): > 50 µM; IC50 [1, 6]: > 50 µM
CCn1cc(NC(=O)c2cc(Cl)c(Cl)s2)cc(C#N)c1=O [Compound 123] | 11.6 µM | 1.2 µM | –
CCn1cc(NC(=O)c2cc(Cl)c(Cl)s2)c(C)cc1=O [Compound 26d] | – | – | IC50 (FL-SMARCA4; FL-SMARCA4 IC50): > 50 µM; IC50 [1, 6]: > 50 µM
O=C(Nc1cc(NCCN2CCOCC2)c(=O)n(CCF)c1)c1cc(Cl)c(Cl)s1 [Compound 256] | 21.4 µM | 6.34 µM | –
CCn1cc(NC(=O)c2cnc(-c3ccc4c(c3)CCO4)s2)ccc1=O [Compound 5] | > 50 µM | > 50 µM | –
CNC(=O)c1cccc(N2CC(c3cc(C(=O)Nc4cc(F)c(=O)n(CC(F)F)c4)sc3Cl)C2)c1 [Compound 176c] | – | – | IC50 (FL-SMARCA4; [4]): 9.19 µM; IC50 [1, 5]: 9.19 µM
CCn1cc(NC(=O)c2csc(NC3CCCC3)n2)ccc1=O [Compound 202] | > 50 µM | > 50 µM | –
CCn1cc(NC(=O)c2nc3cc(F)c(Cl)cc3s2)ccc1=O [Compound 46a] | – | – | IC50 (FL-SMARCA4; [7]): 41.1 µM; IC50 [1, 8]: 42.7 µM
CCn1cc(NC(=O)c2cc(Cl)c(Cl)s2)cc(OCCOC)c1=O [Compound 118] | > 50 µM | > 50 µM | –
O=C(Nc1ccc(=O)n(CC(F)(F)F)c1)c1cc(Cl)c(Cl)s1 [Compound 75] | 1.52 µM | 0.437 µM | –
O=C(Nc1cc(F)c(=O)n(CC(F)F)c1)c1cc(-c2nnco2)c(Cl)s1 [Compound 318] | 13.5 µM | 2.88 µM | –
O=C(Nc1cc(F)c(=O)n(CC(F)F)c1)c1ccc(-c2ccccn2)s1 [Compound 34d] | – | – | IC50 (FL-SMARCA4; FL-SMARCA4 IC50): > 50 µM; IC50 [1, 6]: > 50 µM
CCn1cc(NC(=O)c2ccc(Cl)s2)ccc1=O [Compound 40] | 11.6 µM | 2.63 µM | –
